Data: patent publication US20100081668A1, “POLYMORPHS OF 5--6-CHLORO-1,3-DIHYDRO-2H-INDOL-2-ONE HYDROBROMIDE AND PROCESSES FOR PREPARATION THEREOF” (priority 2006, published 2010)
Counter-ions that a name gives are not always drawn. Like-named read-outs stand apart in the source and are kept apart here.

Experiments:
[1] = Exposure of samples to 100% relative humidity at room temperature; type: physicochemical
Source text: The Ziprasidone-hydrobromide Form III (hemihydrate) sample was also stable in these circumstances.

[2] = Thermogravimetric (TG) and differential scanning calorimetric (DSC) investigation during heating; type: physicochemical
Source text: The Ziprasidone-hydrobromide Form III (hemihydrate) sample was also stable in these circumstances. Thermogravimetry (TG) Parameters: [table] Differential Scanning Calorimetry (DSC) Parameters: [table]

[3] = Stability and water uptake from air at normal humidity; type: physicochemical; conditions: normal circumstances
Source text: During our experimental work we prepared different ziprasidone hydrobromide compounds and forms. […] In suitable circumstances both the anhydrate and the monohydrate of ziprasidone hydrobromide can be prepared in stable forms, at normal humidity these products can easily be handled, meanwhile their water and active ingredient contents remain constant. The hemihydrate of ziprasidone hydrobromide can also be prepared reproducibly.
1.69 g crystalline 5-{2-[4-(1,2-benzisothiazol-3-yl)-1-piperazinyl]-ethyl}-6-chloro-1,3-dihydro-2H-indol-2-one-hydrobromide anhydrate (ziprasidone-hydrobromide anhydrate) in a form of Ziprasidone-hydrobromide Form II was obtained.

[4] = 31% relative humidity, after 4 hours; starting water content 0.19%; cited from earlier work

In the case of `O=C1Cc2cc(CCN3CCN(c4nsc5ccccc45)CC3)c(Cl)cc2N1` [Ziprasidone-hydrobromide Form I, 5-{2-[4-(1,2-benzisothiazol-3-yl)-1-piperazinyl]-ethyl}-6-chloro-1,3-dihydro-2H-indol-2-one-hydrobromide monohydrate], the “stability / change of water content in 100% relative humidity area” value ([1]; monohydrate) is reported as “does not change significantly”, the “temperature at which water is lost during heating” value ([2]; TG and DSC, during heating) is reported as 40-60 °C and the “re-uptake of water after the heat-effect” value ([2]; after heating, transforms back to monohydrate of the original crystal structure) is reported as “readily takes back the water”.
With `O=C1Cc2cc(CCN3CCN(c4nsc5ccccc45)CC3)c(Cl)cc2N1` [Ziprasidone-hydrobromide Form II, 5-{2-[4-(1,2-benzisothiazol-3-yl)-1-piperazinyl]-ethyl}-6-chloro-1,3-dihydro-2H-indol-2-one-hydrobromide anhydrate] the “stability / change of water content in 100% relative humidity area” value [1] was “does not change significantly” and the “water absorption from air” value [3] was “does not absorb water from the air”.
With `O=C1Cc2cc(CCN3CCN(c4nsc5ccccc45)CC3)c(Cl)cc2N1` [Ziprasidone-hydrobromide Form III, 5-{2-[4-(1,2-benzisothiazol-3-yl)-1-piperazinyl]-ethyl}-6-chloro-1,3-dihydro-2H-indol-2-one-hydrobromide hemihydrate] the “stability / change of water content in 100% relative humidity area” value ([1]; hemihydrate) was “stable”.
For `Cl.O=C1Cc2cc(CCN3CCN(c4nsc5ccccc45)CC3)c(Cl)cc2N1` [ziprasidone hydrochloride anhydrate, reference compound], the “water absorption from air” value [3] is given as “adsorbed water rapidly from air” and the “water content after exposure to humid air” value [4] is given as 2.55%.
